The source of these data is US5583127A, “17-iminomethylalkenyl-5 β, 14 β-androstane and 17-iminoalkyl-5 β, 14 β-androstane derivatives active on the cardiovascular system, and pharmaceutical compositions containing same” (Sigma-Tau Industrie Farmaceutiche Riunite S.p.A., priority 1993, dated 1996).

The target of test [1] is purified Na^+,K^+ -ATPase (Homo sapiens, UniProt P05023). Put plainly: inhibition of the activity of the purified Na+,K+-ATPase (% hydrolysis of 32P-ATP). Conditions: read-out: Inhibitory Activity log IC50 (converted). It is filed as biochemical.
For test [2], the target named is Na^+, K^+ -ATPase receptor (Homo sapiens, UniProt P05023). The test is described as follows: displacement of the specific 3H-ouabain binding from the Na+,K+-ATPase receptor.
Test [3] concerns spontaneous hypertensive rats (MHS). Put plainly: effect of 5 week-treatment in spontaneous hypertensive rats (MHS) on the development of hypertension (SBP and HR, tail cuff). It is filed as in vivo, rat. Conditions: 10 mg/Kg/os daily in Methocel 0.5% w/v, 5 weeks. As to the method: Systolic blood pressure (SBP) and heart rate (HR) were measured, by the tail cuff method, in young prehypertensive male rats (MHS or SHR) strains before the development of hypertension (4 weeks of age) for recording the basal values of SBP. Groups of 7 rats were formed and subdivided in control and treated groups. The compound, suspended in Methocel 0.5% (w/v), was orally given daily for at least 5 weeks to the treated groups. The control group received only Methocel. SBP and HR were measured weekly 6 and 24 hrs after treatment. After 5 weeks of treatment, when hypertension was fully developed in the control group (9 weeks of age), washout was started for at least one week, to verify whether the treatment maintained blood pressure low or reestablished the basal values. […] (Takeda K. et al., Japan J. Pharmacol., 1979, 29,171; Takeda K. et al. Japan J. Pharmacol., 1982, 32, 283; Richer C. et al. Eur. J. Pharmacol, 1978, 47,393).

[4] abbreviates: displacement of specific 3H-ouabain binding, read-out: Binding ^3 H-Ouab. Displacement log IC50 (converted).

SMILES strings stand for the structures. Read-outs that look alike come from different tables or passages of the source.

As a reminder, the IC50 is the midpoint of a concentration-inhibition curve. For the compound `C[C@]12CC[C@H](OCCN3CCCC3)C[C@H]1CC[C@@H]1[C@@H]2CC[C@]2(C)[C@@H](/C=C/C=NNC(=N)N)CC[C@]12O` [Comp. I-bx, 3β-[2-(1-Pyrrolidinyl)ethoxy]-17β-(3-(E,Z)-guanidinoimino-1-(E)-propenyl)-5β-androstane-3β,14β-diol], the results for the IC50 in test [1] (purified Na+,K+-ATPase) and in test [2] (setting [4]) were 126 nM and 20 nM, respectively.

For the compound `C[C@]12CC[C@H](O)C[C@H]1CC[C@@H]1[C@@H]2CC[C@]2(C)[C@@H](CCC=NNC(=N)N)CC[C@]12O` (mixture of isomers) [Comp. 1-bi, (EZ)-17β-(3-Guanidinoiminopropyl)-5β-androstane-3β,14β-diol], the half-maximal inhibitory concentration (IC50) in test [1] (purified Na+,K+-ATPase) was 2000 nM; in test [2] (setting [4]) it was 126 nM.

As to `CN(C)CCO/N=C/C=C/[C@H]1CC[C@]2(O)[C@@H]3CC[C@@H]4C[C@H](O)CC[C@]4(C)[C@H]3CC[C@]12C` [Comp. I-ck, (E,E)-17β-[3-(2-Dimethylaminoethoxyimino)-1-propenyl]-5β-androstane-3α,14β-diol], the IC50 was 63.1 nM in test [1] (purified Na+,K+-ATPase) and 50.1 nM in test [2].

As to `C[C@]12CC[C@@H](O)C[C@H]1CC[C@@H]1[C@@H]2CC[C@]2(C)[C@@H](/C=C/C=N/NC(=N)N)CC[C@]12O` [Comp. I-ej, (E,E)-17β-(3-Guanidinoimino-1-propenyl)-5β-androstane-3α,14β-diol], the IC50 in test [1] (purified Na+,K+-ATPase) was 316 nM; in test [2], 50.1 nM.

Take `C[C@]12CC[C@H](O)C[C@H]1CC[C@@H]1[C@@H]2CC[C@]2(C)[C@@H](CC=NNC(=N)N)CC[C@]12O` (mixture of isomers) [Comp. I-bc, (EZ)-17β-(2-Guaidinoimino)ethyl-5β-androstane-3β,14β-diol]: the figures for the IC50 in test [1] (purified Na+,K+-ATPase) and in test [2] (setting [4]) were 398 nM and 79.4 nM, respectively.

Take `CN(C)CCCON=C/C=C/[C@H]1CC[C@]2(O)[C@@H]3CC[C@@H]4C[C@@H](O)CC[C@]4(C)[C@H]3CC[C@]12C` (mixture of isomers) [Comp. I-ar, 17β-[3-(3-(EZ)-Dimethylaminopropoxyimino)-1-(E)-propenyl]-5β-androstane-3β,14β-diol]: the IC50 in test [1] (purified Na+,K+-ATPase) is 126 nM; in test [2] (setting [4]), 63.1 nM.

For `C[C@]12CC[C@H](O)C[C@H]1CC[C@@H]1[C@@H]2CC[C@]2(C)[C@@H](/C=C/C=N/NC3=NCCCN3)CC[C@]12O` [Comp. I-ag, (E,E)-17β-[3-(1,4,5,6-Tetrahydro-2-pyrimidinyl)hydrazono-1-propenyl]-5β-androstane-3β,14β-diol], the IC50 is 1580 nM in test [1] (purified Na+,K+-ATPase) and 39.8 nM in test [2] (setting [4]).

Turning to `C[C@]12CC[C@H](OCCN)C[C@H]1CC[C@@H]1[C@@H]2CC[C@]2(C)[C@@H](/C=C/C=NNC(=N)N)CC[C@]12O` (mixture of isomers) [Comp. I-cb], the IC50 in test [1] (purified Na+,K+-ATPase) was 100 nM; in test [2] (setting [4]), 20 nM.

Take `C[C@]12CC[C@H](O)C[C@H]1CC[C@@H]1[C@@H]2CC[C@]2(C)[C@@](O)(/C=C/C=N/NC(=N)N)CC[C@]12O` [Comp. 1-bo, (E,E)-17β-(3-Guanidinoimino-1-propenyl)-5β-androstane-3β,14β,17α-triol]: the IC50 in test [1] (purified Na+,K+-ATPase) is 10000 nM; in test [2] (setting [4]), 501 nM.

As to `CN(C)CCON=CC[C@H]1CC[C@]2(O)[C@@H]3CC[C@@H]4C[C@@H](OCCN5CCCC5)CC[C@]4(C)[C@H]3CC[C@]12C` (mixture of isomers) [Comp. I-cg, 3β-[2-(1-Pyrrolidinyl)ethoxy]-17β-[3-(EZ)-(2-dimethylamino-ethoxyimino)ethyl]-5β-androstane-14β-ol], the IC50 is 100 nM in test [1] (purified Na+,K+-ATPase) and 31.6 nM in test [2] (setting [4]).

As for `C[C@]12CC[C@H](O)C[C@H]1CC[C@@H]1[C@@H]2CC[C@]2(C)[C@@H](/C=C/C=N\NC3=NCCCN3)CC[C@]12O` [Comp. I-ah, 17β-[3-(Z)-(1,4,5,6-Tetrahydro-2-pyrimidinyl)hydrazono-1-(E)-propenyl]-5β-androstane-3β,14β-diol], the concentration for half-maximal inhibition (IC50) in test [1] was 7940 nM; in test [2] it was 794 nM.

Consider `C[C@]12CC[C@H](O)C[C@H]1CC[C@@H]1[C@@H]2CC[C@]2(C)[C@@H](/C=C/C=N/OCCCN)CC[C@]12O` [Comp. I-ap, (E,E)-17β-[3-(3-Aminopropoxyimino)-1-propenyl]-5β-androstane-3β,14β-diol], for which the IC50 in test [1] (purified Na+,K+-ATPase) is 100 nM; in test [2] it was 50.1 nM.

As for `CN(C)CCON=CC[C@H]1CC[C@]2(O)[C@@H]3CC[C@@H]4C[C@@H](OCCCN5CCCC5)CC[C@]4(C)[C@H]3CC[C@]12C` (mixture of isomers) [Comp. I-ci, 3β-[3-(1-Pyrrolidinyl)propoxy]-17β-[3-(EZ)-(2-dimethylamino-ethoxyimino)ethyl]-5β-androstane-14β-ol], the IC50 in test [1] (purified Na+,K+-ATPase) is 158 nM; in test [2], 50.1 nM.

On to `CN(C)CCON=CCC[C@H]1CC[C@]2(O)[C@@H]3CC[C@@H]4C[C@@H](O)CC[C@]4(C)[C@H]3CC[C@]12C` (mixture of isomers) [Comp. I-bn, (EZ)-17β-[3-(2-Dimethylaminoethoxyimino)propyl]-5β-androstane-3β,14β-diol], for which the results for the half-inhibitory concentration (IC50) in test [1] (purified Na+,K+-ATPase) and in test [2] (setting [4]) were 100 nM and 25.1 nM, respectively.

In the case of `CC(CO[C@H]1CC[C@@]2(C)[C@H](CC[C@@H]3[C@@H]2CC[C@]2(C)[C@@H](/C=C/C=NOCCN(C)C)CC[C@]32O)C1)N1CCCC1` (mixture of isomers) [Comp. I-ca, 3β-[2-(1-Pyrrolidinyl)propoxy]-17β-[3-(EZ)-(2-dimethylamino-ethoxyimino)-1-(E)-propenyl]-5β-androstane-14β-ol], the values for the half-inhibitory concentration (IC50) in test [1] (purified Na+,K+-ATPase) and in test [2] (setting [4]) were 39.8 nM and 31.6 nM, respectively.

Turning to `C[C@]12CC[C@H](O)C[C@H]1CC[C@@H]1[C@@H]2CC[C@]2(C)[C@@H](/C=C/C=N/OCCN)CC[C@]12O` [Comp. I-ao, (E,E)-17β-[3-(2-Aminoethoxyimino)-1-propenyl]-5β-androstane-3β,14β-diol], the IC50 in test [1] (purified Na+,K+-ATPase) was 20 nM; in test [2] (setting [4]), 15.8 nM.

For the compound `C[C@]12CC[C@H](O)C[C@H]1CC[C@@H]1[C@@H]2CC[C@]2(C)[C@@](O)(/C=C/C=N/NC3=NCCN3)CC[C@]12O` [Comp. I-bp, (E,E)-17β-[3-(2-Imidazolin-2-yl)hydrazono-1-propenyl]-5β-androstane-3β,14β,17α-triol], the IC50 is 7940 nM in test [1] and 631 nM in test [2] (setting [4]).

As to `C[C@]12CC[C@H](OCCCN)C[C@H]1CC[C@@H]1[C@@H]2CC[C@]2(C)[C@@H](/C=C/C=N/NC(=N)N)CC[C@]12O` [qomp. I-cd, (E,E)-3β-(3-Aminopropoxy)-17β-(3-guanidinoimino-1-propenyl)-5β-androstane-3β,14β-diol], the IC50 in test [1] (purified Na+,K+-ATPase) is 79.4 nM; in test [2] (setting [4]), 15.8 nM.

In the case of `C[C@]12CC[C@H](O)C[C@H]1CC[C@@H]1[C@@H]2CC[C@]2(C)[C@@H](/C=C/C=N/NC(=N)Nc3ccccc3)CC[C@]12O` [Comp. I-aj, (E,E)-17β-[3-(3-Phenyl)guanidinoimino-1-propenyl]-5β-androstane-3β,14β-diol], the values for the IC50 in test [1] and in test [2] (setting [4]) were 10000 nM and 1000 nM, respectively.

In the case of `C[C@]12CC[C@H](O)C[C@H]1CC[C@@H]1[C@@H]2CC[C@]2(C)[C@@H](/C=C/C=N/NC(=N)N)CC[C@]12O` [Comp. I-aa, (E,E)-17β-(3-Guanidinoimino-1-propenyl)-5β-androstane-3β,14β-diol], the IC50 in test [2] (setting [4]) was 25.1 nM. Besides, the “SBP (systolic blood pressure)” value in test [3] (controls 172 +/- 3.5) was 149 +/- 3.9 mm Hg. Also, the “HR (heart rate)” value in test [3] (controls 380 +/- 9.0) is on record as 373 +/- 10.0 beats/min.

In the case of `C[C@]12CC[C@H](O)C[C@H]1CC[C@@H]1[C@@H]2CC[C@]2(C)[C@@H](CC=NOCCCN)CC[C@]12O` (mixture of isomers) [Comp. I-bg, (EZ)-17β-[2-(3-Aminopropoxyimino)ethyl]-5β-androstane-3β,14β-diol], the results for the half-inhibitory concentration (IC50) in test [1] (purified Na+,K+-ATPase) and in test [2] were 398 nM and 50.1 nM, respectively.

Turning to `CN(C)CCON=CC[C@@]1(O)CC[C@]2(O)[C@@H]3CC[C@@H]4C[C@@H](O)CC[C@]4(C)[C@H]3CC[C@]12C` (mixture of isomers) [Comp. I-bt, (EZ)-17β-[2-(2-Dimethylaminoethoxyimino)ethyl]-5β-androstane-3β,14β,17α-triol], the IC50 is 10000 nM in test [1] (purified Na+,K+-ATPase) and 794 nM in test [2] (setting [4]).

In the case of `C[C@]12CC[C@H](O)C[C@H]1CC[C@@H]1[C@@H]2CC[C@]2(C)[C@@H](/C=C/C=N\NC(=N)N)CC[C@]12O` [Comp. I-ab, 17β-[3-(Z)-Guanidinoimino-1-(E)-propenyl]-5β-androstane-3β,14β-diol], the IC50 in test [1] was 3160 nM; in test [2] (setting [4]) it was 316 nM.

For the compound `C[C@]12CC[C@H](O)C[C@H]1CC[C@@H]1[C@@H]2CC[C@]2(C)[C@@H](/C=C/C=N/NC(N)=S)CC[C@]12O` [Comp. I-al, (E,E)-17β-(3-Thiosemicarbazono-1-propenyl)-5β-androstane-3β,14β-diol], the results for the half-maximal inhibitory concentration (IC50) in test [1] (purified Na+,K+-ATPase) and in test [2] (setting [4]) were 39800 nM and 3980 nM, respectively.

`CN(C)CCON=C/C=C/[C@H]1CC[C@]2(O)[C@@H]3CC[C@@H]4C[C@@H](OCCCN)CC[C@]4(C)[C@H]3CC[C@]12C` (mixture of isomers) [Comp. 1-ce, 3β-(3-Aminopropoxy)-17β-[3-(EZ)-(2-dimethylaminoethoxy-imino)-1-(E)-propenyl]-5β-androstane-14β-ol]: the figures for the IC50 in test [1] (purified Na+,K+-ATPase) and in test [2] (setting [4]) were 20 nM and 15.8 nM, respectively.
